Experimental data published in patent publication US12077501B2, “Compounds and compositions for intracellular delivery of agents” (ModernaTX, Inc., priority 2017, dated 2024).

How the values were obtained:
[1] = Particle size and polydispersity index of nanoparticle compositions (Zetasizer Nano ZS); assay type: physicochemical; conditions: Table 1c; nanoparticle compositions
Description: A Zetasizer Nano ZS (Malvem Instruments Ltd, Malvem, Worcestershire, UK) can be used to determine the particle size, the polydispersity index (PDI) and the zeta potential of the nanoparticle compositions in 1×PBS in determining particle size and 15 mM PBS in determining zeta potential.

[2] = Encapsulation efficiency of RNA (QUANT-IT RIBOGREEN RNA assay); assay type: physicochemical; conditions: Table 1c; nanoparticle compositions
Outline: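 RiboGreen fluorescence (ex about 480, em about 520 nm) compares nanoparticle samples left intact versus disrupted with 2% Triton X-100 (15 min, 37° C). Samples are first brought to roughly 5 μg/mL in 10 mM Tris-HCl, 1 mM EDTA, pH 7.5; percent free RNA equals the blank-corrected intact/disrupted signal ratio.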

[3] = pKa of nanoparticle compositions; assay type: physicochemical; conditions: Table 1c
[4] = Lipid purity change after storage in EtOH for 96 h at 25 or 37 °C; assay type: physicochemical
Outline: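 Lipid stability was assessed as purity after storage in ethanol for 96 h at 25 °C or 37 °C.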

[5] = tested on: hEPO expression; experiment: hEPO expression in CD-1 mice compared with MC3; assay type: in vivo; conditions: intravenous, 0.5 mpk, Table 7e
Outline: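 Dosing: 0.5 mpk nanoparticle composition, CD-1 mice. Measured: hEPO expression.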

[6] = Lipid clearance: % dose remaining in liver of CD-1 mice; assay type: in vivo; conditions: intravenous, 0.5 mg/kg, CD-1 mouse, Table 8a
Outline: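 Expression and clearance data were obtained for nanoparticle compositions with various test compounds, run in parallel with an MC3 composition.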

[7] = tested on: hEPO expression; experiment: hEPO (miR126 + miR142) mRNA expression, Tables 8b-8e; assay type: in vivo; conditions: for AUC (mIU/mL*h): lipid:Chol:PEG 1 50:47.5:2.5, Table 8e
[8] = Lipid clearance: % dose remaining, Tables 7c and 8b-8e (species not given); assay type: in vivo
Description: In contrast, hEPO expression in rats induced by administration of a nanoparticle composition including a compound according to one of formulae (I), (Ia1)-(Ia6), (Ib), (II), (IIa), (III), and (IIIa) was substantially […] than that measured for MC3. […] Tables 7c and 7d show additional protein expressions and clearance data from compositions with various compounds disclosed herein as compared to with MC3. Tables 7e, 7f and 7g show hEPO expression data in CD-1 mice at a dose of 0.5 mpk.

[9] = lipid:Chol:PEG 1 50:47.5:2.5, Table 8e

SMILES | PDI [1] | Size (nm) [1] | EE (%) [2] | pKa [3] | Lipid % change purity in EtOH, 25° C., 96 h [4] | Lipid % change purity in EtOH, 37° C., 96 h [4] | AUC (p/s*h) CD-1 mice 0.5 mpk [5] | % Dose Remaining 24 hr [6] | AUC ([7]; Table 8b) | % Dose Remaining (liver, 24 h) ([8]; Table 8b) | AUC (mIU/mL*h) [7] | % Dose Remaining (liver, 24 h) [8, 9]
CCCCCCCCCCCCCCN(CCCCCCCC(=O)OCCCCC)CCC1CCCN(C(=O)CN(CCCCCCCCC)CCN(CCCCCCCCC)CCCCCCCCC)C1 (stereo not drawn) [Compound 120, Pentyl 8-((2-(1-(N-(2-(dinonylamino)ethyl)-N-nonylglycyl)piperidin-3-yl)ethyl)(tetradecyl)amino)octanoate] | 0.21 | 78.7 nm | 99.0% | 6.49 | 0.8% | 2.9% | 4.17E+07 p/s*h | 9.32% | – | – | – | –
CCCCCCCCCCCCCCN(CCCCCC(=O)OCCCCCCC)CCC1CCCN(C(=O)CN(CCCCCCCCC)CCN(CCCCCCCCC)CCCCCCCCC)C1 (stereo not drawn) [Compound 121, Heptyl 6-((2-(1-(N-(2-(dinonylamino)ethyl)-N-nonylglycyl)piperidin-3-yl)ethyl)(tetradecyl)amino)hexanoate] | 0.22 | 75.7 nm | 98.6% | 6.50 | 0.3% | 1.5% | 2.84E+07 p/s*h | 13.97% | – | – | – | –
CCCCCCCCCCCCCCN(CCCOC(=O)CCCCCCCCC)CCC1CCCN(C(=O)CN(CCCCCCCCC)CCN(CCCCCCCCC)CCCCCCCCC)C1 (stereo not drawn) [Compound 122, 3-((2-(1-(N-(2-(Dinonylamino)ethyl)-N-nonylglycyl)piperidin-3-yl)ethyl)(tetradecyl)amino)propyl decanoate] | 0.23 | 77.1 nm | 99.1% | 6.44 | 1% | 4.1% | 5.71E+07 p/s*h | 0.05% | – | – | – | –
CCCCCCCCCCCCCCN(CCCCCCCC(=O)OCCCCC)CCC1CCN(C(=O)CN(CCCCCCCCC)CCN(CCCCCCCCC)CCCCCCCCC)C1 (stereo not drawn) [Compound 124, Pentyl 8-((2-(1-(N-(2-(dinonylamino)ethyl)-N-nonylglycyl)pyrrolidin-3-yl)ethyl)(tetradecyl)amino)octanoate] | 0.21 | 92.7 nm | 99.2% | 6.94 | −4.6% | −3.5% | 3.88E+07 p/s*h | 5.60% | – | – | – | –
CCCCCCCCCCCCCCN(CCCOC(=O)CCCCCCCCC)CCC1CCN(C(=O)CN(CCCCCCCCC)CCN(CCCCCCCCC)CCCCCCCCC)C1 (stereo not drawn) [Compound 126, 3-((2-(1-(N-(2-(Dinonylamino)ethyl)-N-nonylglycyl)pyrrolidin-3-yl)ethyl)(tetradecyl)amino)propyl decanoate] | 0.24 | 87.0 nm | 98.7% | 6.76 | 0.6% | 2.2% | 6.24E+07 p/s*h | 0.09% | – | – | – | –
CCCCCCCCCCCCCCN(CCCCCCCCCCCC(=O)OC)CCC1CCN(C(=O)CN(CCCCCCCCC)CCN(CCCCCCCCC)CCCCCCCCC)C1 (stereo not drawn) [Compound 127, Methyl 12-((2-(1-(N-(2-(dinonylamino)ethyl)-N-nonylglycyl)pyrrolidin-3-yl)ethyl)(tetradecyl)amino)dodecanoate] | 0.20 | 79.8 nm | 99.5% | 6.81 | 2.7% | 2.9% | 3.45E+07 p/s*h | 0.86% | – | – | – | –
CCCCCCCCCN(CCCCCCCCC)CCOC(=O)C1CCC(C(=O)OCCN(CCCCCCCCC)CCN(CCCCCCCCC)CCCCCCCCC)CC1 (stereo not drawn) [Compound 128, 1-(2-(Dinonylamino)ethyl) 4-(2-((2-(dinonylamino)ethyl)(nonyl)amino)ethyl) cyclohexane-1,4-dicarboxylate] | 0.20 | 68.0 nm | 97.1% | 4.93 | 6.9% | 12.2% | 3.04E+05 p/s*h | 52.19% | – | – | – | –
CCCCCCCCCCN(CCCCCCCCCC)CCCC(=O)N1CCN(C(=O)CCCN(CCCCCCCCCC)CCCCCCCCCC)CC1 [Compound 146, 1,1′-(Piperazine-1,4-diyl)bis(4-(didecylamino)butan-1-one)] | – | – | – | – | – | – | – | – | 1.27e+07 pg·h/mL | 81.04% | – | –
CCCCCCCCCN(CCCCCCCCC)CCN(CCCCCCCCC)CC(=O)N(C)CCN(C)C(=O)CN(CCCCCCCCC)CCCCCCCCC [Compound 151, 2-(Dinonylamino)-N-(2-(2-((2-(dinonylamino)ethyl)(nonyl)amino)-N-methylacetamido)ethyl)-N-methylacetamide] | 0.18 | 77.4 nm | 98.8% | 7.46 | −0.7% | 2.1% | 1.54E+08 p/s*h | 75.96% | – | – | – | –
CCCCCCCCCN(CCCCCCCCC)CCN(CCCCCCCCC)CC(=O)N(C)CCN(C)C(=O)CN(CCCCCCCCC)CCCC(=O)OCCCCC [Compound 152, Pentyl 8,11-dimethyl-5,14,17-trinonyl-7,12-dioxo-5,8,11,14,17-pentaazahexacosanoate] | 0.16 | 79.1 nm | 98.5% | 7.48 | 0% | 2% | 1.09E+08 p/s*h | 34.01% | – | – | – | –
CCCCCCCCCOC(=O)CCCCCCCN(CCCCCCCC(=O)OCCCCCCCCC)CCOCCOCCN(CCCCCCCCC)CCCCCCCCC [Compound 173, Nonyl 18-nonyl-9-(8-(nonyloxy)-8-oxooctyl)-12,15-dioxa-9,18-diazaheptacosanoate] | – | – | – | – | – | – | – | – | – | – | 6.70E+06 mIU/mL*h | 8.55%
CCCCCCCCCOC(=O)CCCCCCCN(CCCCCCCC(=O)OC(CCCCCCCC)CCCCCCCC)CCOCCOCCN(CCCCCCCCC)CCCCCCCCC [Compound 174, Heptadecan-9-yl 18-nonyl-9-(8-(nonyloxy)-8-oxooctyl)-12,15-dioxa-9,18-diazaheptacosanoate] | – | – | – | – | – | – | – | – | – | – | 5.03E+07 mIU/mL*h | 30.05%
CCCCCCCCCOC(=O)CCCCCCCN(CCCCCCCC(=O)OCCCCCCCCC)CCCCCN(CCCCCCCCC)CCCCCCCCC [Compound 177, Dinonyl 8,8′-((5-(dinonylamino)pentyl)azanediyl)dioctanoate] | – | – | – | – | – | – | – | – | – | – | 6.84E+07 mIU/mL*h | 35.91%
CCCCCCCCCOC(=O)CCCCCCCN(CCCCCCCC(=O)OC(CCCCCCCC)CCCCCCCC)CCCCCN(CCCCCCCCC)CCCCCCCCC [Compound 178, Heptadecan-9-yl 8-((5-(dinonylamino)pentyl)(8-(nonyloxy)-8-oxooctyl)amino)octanoate] | – | – | – | – | – | – | – | – | – | – | 8.44E+07 mIU/mL*h | 44.93%
CCCCCCCCCOC(=O)CCCCCCCN(CCCCCCCC(=O)OCCCCCCCCC)CCOCCN(CCCCCCCCC)CCCCCCCCC [Compound 179, Dinonyl 8,8′-((2-(2-(dinonylamino)ethoxy)ethyl)azanediyl)dioctanoate] | – | – | – | – | – | – | – | – | – | – | 7.79E+06 mIU/mL*h | 26.22%
